Measurements reported in paper PMC7211193, “Evaluation of absorption, distribution, metabolism, and excretion of [^14C]-rucaparib, a poly(ADP-ribose) polymerase inhibitor, in patients with advanced solid tumors” (Investigational New Drugs, 2019).
Several values for one entry are separate records, joined by “and”; a condition that tells them apart may be missing. Identical values can stand only once.

Legend:
[1] = Mass balance: recovery of radioactivity in urine and feces; format: in vivo, human
Method: Six patients received a single oral dose of [^14C]-rucaparib 600 mg (approximately 5.18 MBq or 140 μCi) on day 1 after fasting for 10 h and were confined at the study site for the collection of blood samples and excreta for a maximum of 12 days.
For the purposes of the mass balance study and metabolite profiling, urine and fecal samples were collected during predetermined intervals. Urine was collected at time 0 (predose), 0–6, 6–12, and 12–24 h, and daily per 24-h interval from day 2 to day 12. Urine was collected in 3-L polyethylene containers and stored at 4 °C for the duration of the collection period. After each collection period, urine samples were mixed thoroughly, weighed, portioned into aliquots in polypropylene tubes, and then frozen at or below −70 °C until metabolite profiling and TRA analyses by LSC. Feces were collected daily in 24-h intervals from predose to day 12. Feces collections were kept at or below −20 °C. Sample pretreatment involved diluting and homogenizing the feces by adding water (1–2 weight equivalents). An Ultra-Turrax mixer (IKA, Staufen im Breisgau, Germany) was used to homogenize the samples before aliquoting. Separate aliquots of fecal homogenate were transferred to polypropylene tubes. Aliquots for radioactivity measurement by LSC were stored at or below −20 °C until analysis, whereas aliquots for metabolite profiling were stored at −70 °C until analysis.
Patients 01, 05, and 09 were confined to the study site for sample collections for 12 days, but Patients 03, 06, and 08 were discharged earlier per protocol because cumulative recovery of radioactivity from these patients exceeded 90% of the administered dose or the radioactivity in urine and feces was <1% of the administered dose over a 24-h period on 2 consecutive days.
TRA analysis was performed on a Liquid Scintillation Counter Tri-Carb Model 3100TR (PerkinElmer). Aliquots of blood (300 μL), plasma (250 μL), and urine (1 mL) were transferred to scintillation vials. Blood samples were incubated at ≥60 °C with SOLVABLE (1 mL). After cooling to room temperature, EDTA (0.1 M, 100 μL) and hydrogen peroxide (225 μL) were added to dissolve blood cells, reduce foaming, and decrease color intensity. Finally, after incubation at ≥45 °C and ≥60 °C, Ultima Gold (≥5-fold) was added, and the samples were analyzed with LSC. For urine samples, Ultima Gold (≥5-fold) was added, and the samples were analyzed with LSC.
Fecal samples were processed further and combusted before LSC analyses. Aliquots (≈500 mg) of the fecal homogenates were dried in an oven (50 °C). Combustaid (100 μL) was added to the dry homogenates and the sample was combusted in a Sample Oxidizer Model 307 (PerkinElmer). Carbo-Sorb E (7 mL) was used as an absorber agent for the [^14C]-carbon dioxide that was generated during combustion. At the end of the combustion cycle, the absorber was mixed with 13 mL of the scintillant PermaFluor E. After combustion, TRA of fecal aliquots was determined by LSC as described for urine samples.
For the vomit sample collected from Patient 01 (clear vomitus) the urine method was used, and for Patient 05 (not clear vomitus) the feces method was used.

[2] = Metabolite profiling in pooled urine (LC-MS-Radiomatic); format: in vivo, human; settings: for % Dose in urine: pooled urine, % of administered dose
Method: For each patient, urine samples from different collection intervals were pooled in proportion to their sample weight in order to obtain a pooled sample covering 90% of the TRA in urine. Pooled urine samples were lyophilized and then extracted at least twice with acetonitrile. The obtained supernatant was evaporated to dryness, and the dried residues were reconstituted in 20% acetonitrile in water containing 0.1% TFA. An aliquot of the supernatant was analyzed for TRA to determine extraction efficiency, and the mean recovery was ≈70%. Aliquots of the supernatants were injected into the HPLC coupled to UV and radioactive detectors to obtain metabolite profiles. The samples were also analyzed using LC-MS for metabolite identification.
Metabolite profiling and identification were performed on an LC system (Agilent) coupled to an LTQ Orbitrap mass spectrometer (Thermo Electron, Waltham, MA, USA) in combination with offline TopCount (LC-MS-TopCount) or online Radiomatic 625TR (LC-MS-Radiomatic; PerkinElmer). Proposed structures of the metabolites were based on accurate mass (<5 ppm) and comparison of mass spectral data of parent compound rucaparib and metabolite standard M324. The Radiomatic 625TR flow detector, equipped with a 200 μL flow cell, was operated using scintillation cocktail (Ultima-Flo M) delivered at a flow rate of 1 mL/min. Chromatography was done using a Phenomenex (Torrance, CA, USA) Luna Phenyl-Hexyl column (250 × 2 mm, 5 μm, 100 Å) at ambient temperature during the sample analysis. The mobile phase was (A) 0.05% TFA in water and (B) 0.05% TFA in acetonitrile, with a 0.2 mL/min flow rate. The gradient was as follows: 5% B over 2.1 min, to 20% B in 1.0 min, to 35% B in 16.9 min, isocratic at 35% B for 5 min, to 95% B over 5 min, and reduced to 5% B over 1 min, with total run time 45 min.
The abundance of unchanged rucaparib and metabolites identified in plasma, urine, and feces was determined as a percentage of the TRA in the analyzed samples. Percentage of the administered dose of rucaparib and metabolites was calculated in urine and feces (formula A). The concentration of rucaparib and its metabolites in plasma (ng Eq h/mL) was calculated based on the specific activity, TRA, and percentage of peaks (formula B). The AUC0-24h value of rucaparib and its major metabolite M324 in plasma was calculated using both Hamilton method (formula C) and linear trapezoidal method (formula D). • (A) %Doseofmetabolite=TRAinurineorfeces(dpm)÷TRAinadministereddose(dpm)×%metabolitesinmatrix • (B) Metaboliteconcentrationsinplasma(ngEq/mL)=TRAinplasma(dpm/mL)specificactivity(ngEq/dpm)×%metabolitesinthematrix • (C) Hamiltonmethod:AUC0−24h(ngEqh/mL)=concentrationinHamilton(AUC0−24h)pooledplasma(ngEq/mL)×24(h) • (D) Lineartrapezoidalmethod:AUC0−24h(ngEqh/mL)=C1h/2×1h+C1h+C4h/2×(4h−1h)+C4h+C8h/2×(8h−4h)+C8h+C24h/2×(24h−8h)

[3] = within 12 days post dose, mean ± SD, N = 6

## CNCc1ccc(-c2[nH]c3cc(F)cc4c3c2CCNC4=O)cc1 [Rucaparib, rucaparib]
[1]; Patient 01, dose corrected for loss by vomiting
  Cumulative recovery of the actual dose, Patient 01: 86.5%
[1]; Patient 05
  Dose recovery in feces, patient who lost 0.03% of dose by vomiting: 62.2%
  Dose recovery in urine, patient who lost 0.03% of dose by vomiting: 10.9%
[1]; Patient 05, urine plus feces
  Cumulative dose recovery, patient who lost 0.03% of dose by vomiting (lowest recovery): 73.1%
[1]; human, urine and feces, po, 600 mg, radioactivity in urine plus radioactivity recovered as metabolites in feces, read-out: Oral bioavailability suggested by the current study
  bioavailability: ≥ 21%
[1]; post dose
  Time by which 90% of the observed urinary recovery was achieved: ≤ 120 h
  Time within which 90% of the observed fecal recovery was found: ≤ 168 h
[1]; [3]
  Recovery of administered radioactive dose in feces: 71.9%
  Recovery of administered radioactive dose in urine: 17.4%
  Total recovery of administered radioactive dose in excreta: 89.3%
[2]; Patient 01
  % of dose in pooled urine, Patient 01: 14.3 % dose
[2]; Patient 03
  % of dose in pooled urine, Patient 03: 5.03 % dose
[2]; Patient 05
  % of dose in pooled urine, Patient 05: 2.85 % dose
[2]; Patient 06
  % of dose in pooled urine, Patient 06: 5.96 % dose
[2]; Patient 08
  % of dose in pooled urine, Patient 08: 10.7 % dose
[2]; Patient 09
  % of dose in pooled urine, Patient 09: 6.77 % dose
[2]; pooled urine covering 90% of urine radioactivity, N = 6, mean ± SD
  % Peak (of TRA) in urine: 44.9 ± 15.6%
[2]; N = 6, mean ± SD
  % Dose in urine: 7.59 ± 4.16%
[2]; N = 6, mean ± SD, listed as rucaparib
  % Dose in urine: ≈ 7.6% and > 7%
